Series [1] concerns human neuroblastoma cell lines SH-SY5Y treated with 1-methyl-4-phenylpyridinium (MPP+). In words: Improvement of mitochondrial function (Alamar Blue mitochondrial oxidation reduction activity) in MPP+-treated SH-SY5Y cells. The settings on record: 1.5 mM MPP+, relative to cells in DMSO alone = 100%, read-out: Fluorescence Intensity (%); for activity at 0.01 µg/mL: compound 0.01 μg/ml; for activity at 0.03 µg/mL: compound 0.03 μg/ml; for activity at 0.1 µg/mL: compound 0.1 μg/ml; for activity at 0.3 µg/mL: compound 0.3 μg/ml; for activity at 1 µg/mL: compound 1 μg/ml. It counts as cell-based. How it is done: In human neuroblastoma cell lines SH-SY5Y in which mitochondrial function was damaged by MPP^+ treatment (Bollimuntha S. et al., J Biol Chem, 280, 2132-2140 (2005) and Shang T. et al., J Biol Chem, 280, 34644-34653 (2005)), the improvement of mitochondrial function was evaluated on the basis of the measurement value for mitochondrial oxidation reduction activity using Alamar Blue fluorescent dye after the compound addition (Nakai M. et al, Exp Neurol, 179, 103-110 (2003)).
The human neuroblastoma cell lines SH-SY5Y were cultured in Dulbecco's Modified Eagle's Medium containing 10% fetal bovine serum (DMEM containing 50 units/ml penicillin and 50 μg/ml streptomycin as antibiotics) at 37° C. in the presence of 5% carbon dioxide. Cells were scattered on a poly-D-lysine-coated 96-well black plate at a concentration of 3−6×10^4 cells/cm^2 (medium amount: 100 μl/well) and cultured in the medium for two days. Further, the medium was changed to DMEM containing a 1% N2 supplement (N2-DMEM) or to a medium (100 μl/well) in which 1.5 mM MPP^+ was dissolved. The cells were cultured therein for 39 to 48 hours, and then subjected to a mitochondrial oxidation reduction activity measurement system. A sample compound that had been previously dissolved in dimethyl sulfoxide (DMSO) was diluted with N2-DMEM and added in a volume of 10 μl/well 24 hours before the activity measurement (final compound concentration: 0.01 to 1 μg/ml).
After removal of the medium by suction, a balanced salt solution containing 10% Alamar Blue (154 mM sodium chloride, 5.6 mM potassium chloride, 2.3 mM calcium chloride, 1.0 mM magnesium chloride, 3.6 mM sodium hydrogen carbonate, 5 mM glucose, 5 mM HEPES, pH 7.2) was added in a volume of 100 μl/well, and reacted in an incubator at 37° C. for 1 hour. The fluorescent intensity was detected using a fluorescence detector (a product of Hamamatsu Photonics K.K., excitation wavelength: 530 nm, measurement wavelength: 580 nm) to thereby measure the mitochondrial oxidation reduction activity.
The fluorescent intensity of the well of the cells cultured in a medium containing MPP^+ and each of the sample compounds was relatively evaluated based on the 100% fluorescent intensity of the well of the cells cultured in a medium containing DMSO alone (final concentration: 0.1%).
In general terms: Resazurin is reduced to fluorescent resorufin, in cell work by metabolically active cells.

Broadly, the melting point is the temperature, or range, at which the solid turns liquid. Take `CCCOc1c(C)cc(C)c2c(=O)c(-c3ccc(OC)cc3)c[nH]c12` [Example 23, 3-(4-Methoxyphenyl)-5,7-dimethyl-8-propoxy-1H-quinolin-4-one]: the melting point fell in the range of 174 to 175 °C. For the same compound, in series [1], the activity at 0.01 µg/mL turned out to be 51%, the activity at 0.03 µg/mL is 63%, the activity at 0.1 µg/mL was found to be 67% and the activity at 0.3 µg/mL is 68%. Also, the activity at 1 µg/mL in series [1] is 59%.

For `CCCOc1ccc(C(F)(F)F)c2c(=O)c(-c3ccc(OC)cc3)c[nH]c12` [Example 24, 3-(4-Methoxyphenyl)-8-propoxy-5-trifluoromethyl-1H-quinolin-4-one], the melting point was in the range of 220 to 221 °C. In addition, in series [1], the activity at 0.01 µg/mL was determined as 50%, the activity at 0.03 µg/mL worked out at 57%, the activity at 0.1 µg/mL came out at 64% and the activity at 0.3 µg/mL was 63%. Also, the activity at 1 µg/mL in series [1] came out at 36%.

`CCCOc1cccc2c(=O)c(-c3ccccc3C(F)(F)F)c[nH]c12` [Example 32, 8-Propoxy-3-(2-trofluoromethylphenyl)-1H-quinolin-4-one] returned a melting point of 224 °C. For the same compound, in series [1], the activity at 0.01 µg/mL was 49%, the activity at 0.03 µg/mL was 53%, the activity at 0.1 µg/mL stood at 54% and the activity at 0.3 µg/mL is 57%. For the same compound, the activity at 1 µg/mL in series [1] stood at 61%.

The compound `CCCOc1cc(F)cc2c(=O)c(-c3ccc(OC)cc3)c[nH]c12` [Example 34, 6-Fluoro-3-(4-methoxyphenyl)-8-propoxy-1H-quinolin-4-one] had a melting point of 153 to 154 °C. In series [1], the activity at 0.01 µg/mL was 47%, the activity at 0.03 µg/mL came to 53%, the activity at 0.1 µg/mL was 53% and the activity at 0.3 µg/mL was found to be 63%. In series [1], the activity at 1 µg/mL came to 53%.

`CCCOc1c(OC)cc(C)c2c(=O)c(-c3ccc(OC)cc3)c[nH]c12` [Example 37, 7-Methoxy-3-(4-methoxyphenyl)-5-methyl-8-propoxy-1H-quinolin-4-one] had a melting point of 195 to 196 °C. Also, in series [1], the activity at 0.01 µg/mL worked out at 47%, the activity at 0.03 µg/mL was determined as 54%, the activity at 0.1 µg/mL was determined as 55% and the activity at 0.3 µg/mL was found to be 60%. The activity at 1 µg/mL in series [1] was determined as 59%.

In turn, `CCCOc1ccc(OC)c2c(=O)c(-c3ccc(Cl)cc3Cl)c[nH]c12` [Example 38, 3-(2,4-Dichlorophenyl)-5-methoxy-8-propoxy-1H-quinolin-4-one] came in with a melting point of 125 °C. Besides, in series [1], the activity at 0.01 µg/mL is 47%, the activity at 0.03 µg/mL was found to be 54%, the activity at 0.1 µg/mL amounted to 67% and the activity at 0.3 µg/mL was determined as 75%. In addition, in series [1], the activity at 1 µg/mL came to 65%.

For `CCCOc1ccc(OC)c2c(=O)c(-c3cccc4ccccc34)c[nH]c12` [Example 51, 5-Methoxy-3-naphthalen-1-yl-8-propoxy-1H-quinolin-4-one], the melting point was in the range of 130 to 133 °C. In addition, in series [1], the activity at 0.01 µg/mL amounted to 37%, the activity at 0.03 µg/mL was 45%, the activity at 0.1 µg/mL amounted to 54% and the activity at 0.3 µg/mL is 65%. The activity at 1 µg/mL in series [1] is 49%.

`CCCOc1ccc(C)c2c(=O)c(-c3ccsc3)c[nH]c12` [Example 58, 5-Methyl-8-propoxy-3-thiophen-3-yl-1H-quinolin-4-one] had a melting point of 104 to 107 °C. In series [1], the activity at 0.01 µg/mL was 42%, the activity at 0.03 µg/mL is 53%, the activity at 0.1 µg/mL was determined as 60% and the activity at 0.3 µg/mL came out at 61%. Besides, the activity at 1 µg/mL in series [1] turned out to be 55%.

`CCCOc1ccc(C)c2c(=O)c(-c3ccc4c(c3)OCO4)c[nH]c12` [Example 60, 3-Benzo[1,3]dioxol-5-yl-5-methyl-8-propoxy-1H-quinolin-4-one] had a melting point of 110 to 115 °C. In series [1], the activity at 0.01 µg/mL is 52%, the activity at 0.03 µg/mL amounted to 65%, the activity at 0.1 µg/mL is 75% and the activity at 0.3 µg/mL amounted to 70%. Besides, the activity at 1 µg/mL in series [1] is 44%.

The compound `CCCOc1ccc(C)c2c(=O)c(-c3csc4ccccc34)c[nH]c12` [Example 63, 3-Benzo[b]thiophen-3-yl-5-methyl-8-propoxy-1H-quinolin-4-one] displayed a melting point of 80 to 82 °C. In series [1], the activity at 0.01 µg/mL stood at 40%, the activity at 0.03 µg/mL was 48%, the activity at 0.1 µg/mL came to 57% and the activity at 0.3 µg/mL amounted to 43%. Besides, in series [1], the activity at 1 µg/mL was 21%.

On to `CCCOc1ccc(COC)c2c(=O)c(-c3ccc(OC)cc3)c[nH]c12` [Example 64, 5-Methoxymethyl-3-(4-methoxyphenyl)-8-propoxy-1H-quinolin-4-one], for which the melting point lay in the range of 81 to 83 °C. Further, in series [1], the activity at 0.01 µg/mL is 51%, the activity at 0.03 µg/mL amounted to 56%, the activity at 0.1 µg/mL turned out to be 63% and the activity at 0.3 µg/mL stood at 53%. Also, the activity at 1 µg/mL in series [1] was 38%.

Compound `COc1ccc(-c2c[nH]c3c(N4CCCC4)ccc(C)c3c2=O)cc1` [Example 68, 3-(4-Methoxyphenyl)-5-methyl-8-pyrrolidin-1-yl-1H-quinolin-4-one] yielded a melting point of 177 to 178 °C. In series [1], the activity at 0.01 µg/mL came out at 49%, the activity at 0.03 µg/mL stood at 56%, the activity at 0.1 µg/mL amounted to 62% and the activity at 0.3 µg/mL came to 57%. For the same compound, in series [1], the activity at 1 µg/mL came to 33%.

Compound `CCCCc1ccc(C(=O)N(C)C)c2c(=O)c(-c3ccc(OC)cc3)c[nH]c12` [Example 82, 8-Butyl-3-(4-methoxyphenyl)-4-oxo-1,4-dihydroquinolin-5-carboxylic acid dimethylamide] had a melting point of 198 to 200 °C. In addition, in series [1], the activity at 0.01 µg/mL amounted to 63%, the activity at 0.03 µg/mL worked out at 62%, the activity at 0.1 µg/mL came out at 62% and the activity at 0.3 µg/mL came to 69%. Besides, the activity at 1 µg/mL in series [1] is 81%.

For the compound `COc1ccc(-c2c[nH]c3c(OCC4CC4)cc(C)c(C)c3c2=O)cc1` [Example 83, 8-Cyclopropylmethoxy-3-(4-methoxyphenyl)-5,6-dimethyl-1H-quinolin-4-one], the melting point lay in the range of 99 to 101 °C. Further, in series [1], the activity at 0.01 µg/mL is 65%, the activity at 0.03 µg/mL was determined as 70%, the activity at 0.1 µg/mL is 67% and the activity at 0.3 µg/mL is 62%. Further, the activity at 1 µg/mL in series [1] is 29%.

With `COc1ccc(-c2c[nH]c3c(Br)ccc(C)c3c2=O)cc1` [Example 86, 8-Bromo-3-(4-methoxyphenyl)-5-methyl-1H-quinolin-4-one], the melting point lay in the range of 185 to 186 °C. In series [1], the activity at 0.01 µg/mL was found to be 60%, the activity at 0.03 µg/mL worked out at 65%, the activity at 0.1 µg/mL was 65% and the activity at 0.3 µg/mL turned out to be 65%. Also, in series [1], the activity at 1 µg/mL came to 52%.

For `CCCOc1ccc(C(=O)N(C)C)c2c(=O)c(-c3ccc(OC)cc3)c[nH]c12` [Example 87, 3-(4-Methoxyphenyl)-4-oxo-8-propoxy-1,4-dihydroquinolin-5-carboxylic acid dimethylamide], the melting point lay within 218 to 220 °C. Besides, in series [1], the activity at 0.01 µg/mL is 57%, the activity at 0.03 µg/mL was determined as 57%, the activity at 0.1 µg/mL turned out to be 60% and the activity at 0.3 µg/mL is 65%. Besides, in series [1], the activity at 1 µg/mL is 66%.

Values taken from patent US20130217678A1, “PHARMACEUTICAL AGENT COMPRISING QUINOLONE COMPOUND” (OTSUKA PHARMACEUTICAL CO., LTD., priority 2008, published 2013).
